According to US9980936B2, “BH4 antagonists and methods related thereto” (Emory University, priority 2014, dated 2018):
“Also recorded” adds a separate entry of the source.

How the values were obtained:
[1] = tested on: H460 or DMS53 cells expressing Bcl2 shRNA transfected with WT Bcl2; assay: rescue of Bcl2-silenced cells with exogenous WT Bcl2; type: cell-based; conditions: 72 h
From the text: (§1) Whether expression of exogenous Bcl2 can restore the sensitivity of Bcl2-silenced lung cancer cells to BDA-2 and whether the BDA-2/BH4 binding is important for such effect was examined. WT and BDA-2 binding deficient D10A/N11A/R12A/E13A (AAAA) Bcl2 mutant cDNA in pCIneo or vector-only control were transfected into H460 or DMS53 cells expressing Bcl2 shRNA. It has been reported that if the shRNA is directed to the 3′ UTR or 5′ UTR of the gene, the effect of the shRNA1 can be rescued by ectopically expressing the protein using the wild-type or mutant cDNA. Because Bcl2 shRNA1 targets the 5′UTR of endogenous Bcl2, the silencing effect of shRNA1 on Bcl2 expression could be rescued by transfection of exogenous WT or AAAA Bcl2 mutant. After transfection, cells were treated with BDA-2 or the BH3 mimetic ABT-199 at the indicated concentrations for 72 h. […] The apoptotic effect of BDA-2 on lung cancer cells requires its BH4 binding.

[2] = tested on: H460 or DMS53 cells expressing Bcl2 shRNA transfected with AAAA Bcl2 mutant; assay: rescue of Bcl2-silenced cells with AAAA Bcl2 mutant; type: cell-based; conditions: 72 h
From the text: as §1

A549 cells = assay: Bcl2 expression after mTOR inhibition (Western blot); type: cell-based; conditions: increasing concentrations, 24 hr
Experimental: (§2) A549 or H460 cells were treated with increasing concentrations of RAD001 for 24 h. Bcl2 and p-P70S6K were analyzed by Western blot.
(§3) Rapamycin and its derivative RAD001 (i.e. everolimus) are potent allosteric inhibitors of mTOR. […] Previous reports indicate that expression of Bcl2 is associated with resistance of cancer cells to mTOR inhibitors. To further test whether mTOR inhibition regulates Bcl2 expression, A549 and H460 cells were treated with increasing concentrations of RAD001 for 24 hr.

H460 cells [3] = assay: as above; type: cell-based; conditions: increasing concentrations, 24 hr
Experimental: as §2, §3

[4] = tested on: Bcl2 in tumor tissues of NSCLC patients; assay: Bcl2 expression by IHC in tumor tissue of treated NSCLC patients; type: in vivo, human; conditions: 5 or 10 mg/day for 28 days, 10 NSCLC patients
Experimental: To test whether a similar effect of RAD001 on Bcl2 expression occurs in patients Bcl2 expression was analyzed by IHC in baseline and post-treatment tissue samples obtained from 10 NSCLC patients treated with RAD001 (5 or 10 mg/day) for 28 days as part of a neoadjuvant clinical study of everolimus in patients with resectable NSCLC. […] Thus, inhibition of Bcl2 may enhance the potency of mTOR inhibitor against lung cancer.

H460 cells [5] = assay: SRB cell growth assay, combination with mTOR inhibitor; type: cell-based, human; conditions: BDA-366 100 nM, RAD001 1 nM, alone or in combination, 72 hr
Experimental: Cell growth was analyzed by sulforhodamine B (SRB) colorimetric assay.

Plasmid pUC19 DNA = assay: electrophoretic mobility shift assay (EMSA); type: binding
Experimental: To test whether BDA-2 reacts with DNA as a crosslinker, electrophoretic mobility shift assay (EMSA) was performed. Cisplatin, a known DNA binding agent, was used as positive control. Plasmid pUC19 DNA was incubated with BDA-2 or cisplatin.

[6] = target: purified, human Bcl2 protein (Homo sapiens, UniProt P10415); assay: in vitro cell-free Bcl2 conformational change assay (IP with anti-Bcl2/BH3 domain antibody); type: biochemical
Sequence of purified, human Bcl2 protein (P10415 whole entry, the tested form may be a part): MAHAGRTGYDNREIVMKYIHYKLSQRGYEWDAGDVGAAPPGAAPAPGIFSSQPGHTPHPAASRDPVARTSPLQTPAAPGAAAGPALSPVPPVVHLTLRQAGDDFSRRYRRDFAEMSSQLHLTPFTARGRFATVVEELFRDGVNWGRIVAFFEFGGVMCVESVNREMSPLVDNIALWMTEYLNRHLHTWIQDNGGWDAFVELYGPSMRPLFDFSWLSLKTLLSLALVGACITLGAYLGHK
Experimental: To test whether BDA-2 directly induces Bcl2 conformational change, an in vitro cell-free assay was employed. Purified recombinant Bcl2 protein was incubated with increasing concentrations of BDA-2 in lysis buffer, followed by immunoprecipitation (IP) using the anti-Bcl2/BH3 domain antibody.

purified recombinant Bax = assay: cell-free Bax activation (IP using 6A7 Bax antibody); type: biochemical; conditions: without Bcl2
Experimental: BDA-366-induced Bcl2 conformational change was also confirmed by immunofluorescence using a Bcl2/BH3-domain specific antibody. […] To test this possibility, a 6A7 Bax antibody that only recognizes the conformationally changed, active, form of Bax was employed. Purified Bcl2 was treated with BDA-366 in lysis buffer for 1 h. The mixture of Bcl2/BDA-2 was then incubated with purified recombinant Bax for another 2 h, followed by IP using 6A7 antibody.
To further test whether the BH3 domain of Bcl2 is important for BDA-366 activation of Bax, purified recombinant WT and the BH3 deletion (ΔBH3) mutant Bcl2 proteins were incubated with purified Bax protein in the absence or presence of BDA-366, followed by IP with 6A7 antibody. […] To test this at the cellular or mitochondrial level, WT, ΔBH3 Bcl2 mutant and empty vector (pCIneo) were transfected into H1299 cells that express undetectable levels of endogenous Bcl2 but high levels of endogenous Bax. Cells or isolated mitochondria from these cells were treated with BDA-2, followed by IP with Bcl2 BH3 or 6A7 antibody, respectively.

CC1(C)CCC(CN2CCN(c3ccc(C(=O)NS(=O)(=O)c4ccc(NCC5CCOCC5)c([N+](=O)[O-])c4)c(Oc4cnc5[nH]ccc5c4)c3)CC2)=C(c2ccc(Cl)cc2)C1 [ABT-199, reference compound]
sensitivity of cells after expression of exogenous WT Bcl2 [1]: restored sensitivity | sensitivity of cells restored after expression of AAAA Bcl2 [2]: restored the sensitivity

CO[C@H]1C[C@@H]2CC[C@@H](C)[C@@](O)(O2)C(=O)C(=O)N2CCCC[C@H]2C(=O)O[C@H]([C@H](C)C[C@@H]2CC[C@@H](OCCO)[C@H](OC)C2)CC(=O)[C@H](C)/C=C(\C)[C@@H](O)[C@@H](OC)C(=O)[C@H](C)C[C@H](C)/C=C/C=C/C=C/1C [RAD001]
Bcl2 expression (A549 cells): up-regulation of Bcl2 in a dose-dependent manner; also recorded: up-regulates Bcl2 | Bcl2 expression (H460 cells [3]): up-regulation of Bcl2 in a dose-dependent manner; also recorded: up-regulates Bcl2 | Bcl2 expression in post-treatment tumor tissues compared to baseline [4]: increased expression of Bcl2 | cell growth inhibition (H460 cells [5]): partially inhibited lung cancer cell growth

C#Cc1cccc(Nc2ncnc3cc(OCCOC)c(OCCOC)cc23)c1 [erlotinib, N-(3-ethynylphenyl)-6,7-bis(2-methoxyethoxy)quinazolin-4-amine]
Bcl-2/Bcl-XL expression (lung cancer cells): up-regulation of Bcl-2/Bcl-XL

N.N.[Cl][Pt][Cl] [cisplatin, reference compound]
binding to pUC19 DNA causing mobility shift (Plasmid pUC19 DNA): can bind to pUC19 DNA to cause mobility shift | direct induction of Bcl2 conformational change (BH3 exposure) [6]: not

BAM7 [reference compound]
direct activation of Bax (purified recombinant Bax): can directly activate Bax

COc1cc([C@@H]2c3cc4c(cc3[C@@H](O[C@@H]3O[C@@H]5CO[C@@H](C)O[C@H]5[C@H](O)[C@H]3O)[C@H]3COC(=O)[C@H]23)OCO4)cc(OC)c1O [VP-16]
direct induction of Bcl2 conformational change (BH3 exposure) [6]: not
